{"source": "patent US10568939B2", "about": "“Composition and method for improving sleep duration and quality” (Board of Supervisors of Louisiana State University and …, priority 2016, dated 2020)", "key": {"[1]": {"assay": "Effect of individual components alone versus the novel combination on sleep", "type": "in vivo, human", "details": "component alone or novel combination"}, "Janus kinase 3 (Jak3)": {"tested_on": "Janus kinase 3 (Jak3)", "assay": "Inhibition of Janus kinase 3 (Jak3) expression in LPS-stimulated HT-29 cells", "type": "cell-based", "details": "HT-29 cells stimulated by LPS; EGCG 20, 35, 50 μM; CE from 3, 6, 10 g light roasted chicory; combinations E1C1, E2C2, E3C3; triplicates; FIG. 2", "procedure": "(§1) A series of in vitro tests were conducted, using levels of components that would be expected to approximate the concentrations that would be seen in vivo following oral consumption of 2 fluid ounces of the novel composition by a 70 kilogram individual.\n(§2) • a. Inhibition of Janus kinase 3 (Jak3) by EGCG, CE, or a mixture of EGCG and CE. Jak3 is expressed solely in immune cells. Jak3 expression is an upstream event for the activation of TNF-α and subsequent cytokines such as IL-6. HT-29 colon cancer cells in T-75 flasks were stimulated by LPS (control). HT-29 cells in T-75 flasks were also stimulated by LPS and treated with EGCG (Treatment 1=20 μM (E1), Treatment 2=35 μM (E2), or Treatment 3=50 μM (E3)), CE (extract from 3 g (C1), 6 g (C2), or 10 g (C3) of light roasted chicory), or combinations of the respective low, medium, and high concentrations of EGCG and CE (E1C1, E2C2, or E3C3). C1, C2, or C3 concentrations approximated the levels that would be expected following consumption of 2 fluid ounces of the novel composition by a 70 kilogram individual. […] The effects of the treatments on histamine activity were determined by the inhibition of COX-2 expression. […] The effective concentrations of TNF-α, IL-1β or IL-6 in supernatants were calculated using a standard curve developed using known standards of TNF-α, IL-1β or IL-6. […]"}, "COX-2 expression": {"tested_on": "COX-2 expression", "assay": "Anti-histamine activity: inhibition of COX-2 expression in histamine-treated HeLa cells", "type": "cell-based", "details": "1 μmol/L histamine, 18 h, EGCG 20, 35, 50 μM, positive controls mepyramine maleate and JNJ-7777120, FIG. 3", "procedure": "as §1, §2"}, "TNF-α": {"target": "T1, TNF-α (Homo sapiens, UniProt P01375)", "T1 construct": "TNF-alpha levels in HT-29 cell culture treated with LPS; endogenous in cells; host or cells: HT-29 (culture supernatant)", "T1 sequence (P01375 77-233 limits assumed)": "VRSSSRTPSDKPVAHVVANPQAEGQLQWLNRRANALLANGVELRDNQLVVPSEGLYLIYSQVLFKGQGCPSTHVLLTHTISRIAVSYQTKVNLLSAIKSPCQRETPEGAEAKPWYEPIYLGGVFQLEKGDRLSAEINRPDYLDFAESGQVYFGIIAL", "assay": "TNF-α level by ELISA, supernatants of LPS-treated HT-29 cell cultures", "type": "cell-based", "details": "HT-29 supernatants, EGCG 20, 35, 50 μM, FIG. 4", "procedure": "as §1, §2"}, "IL-1β": {"target": "T2, IL-1β (Homo sapiens, UniProt P01584)", "T2 construct": "IL-1β levels in HT-29 cell culture treated with LPS; endogenous in cells; host or cells: HT-29 (culture supernatant)", "T2 sequence (P01584 117-269)": "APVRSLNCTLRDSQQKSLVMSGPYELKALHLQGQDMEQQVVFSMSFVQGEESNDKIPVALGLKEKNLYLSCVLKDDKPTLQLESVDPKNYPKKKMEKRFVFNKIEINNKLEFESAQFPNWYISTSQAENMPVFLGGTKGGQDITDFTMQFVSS", "assay": "IL-1β level by ELISA, supernatants of LPS-treated HT-29 cell cultures", "type": "cell-based", "details": "HT-29 supernatants, EGCG 20, 35, 50 μM, FIG. 5", "procedure": "as §1, §2"}, "IL-6": {"target": "T3, IL-6 (Homo sapiens, UniProt P05231)", "T3 construct": "IL-6 levels in HT-29 cell culture treated with LPS; endogenous in cells; host or cells: HT-29 (culture supernatant)", "T3 sequence (P05231 30-212)": "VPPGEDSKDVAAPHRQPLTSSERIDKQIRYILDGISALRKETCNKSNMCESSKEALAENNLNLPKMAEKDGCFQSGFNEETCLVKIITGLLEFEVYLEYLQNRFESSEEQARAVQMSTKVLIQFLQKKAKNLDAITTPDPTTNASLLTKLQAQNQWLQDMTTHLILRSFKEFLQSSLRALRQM", "assay": "IL-6 level by ELISA, supernatants of LPS-treated HT-29 cell cultures", "type": "cell-based", "details": "HT-29 supernatants, EGCG 20, 35, 50 μM, FIG. 6", "procedure": "as §1, §2"}}}
{"smiles": "CCNC(=O)CC[C@H](N)C(=O)O", "note": "[Theanine]", "values": [{"measurement": "Sleep after awakening in the middle of the night", "setting": "[1]", "result": "does not improve sleep after awakening in the middle of the night"}, {"measurement": "Sleep onset, depth, efficiency, duration", "setting": "[1]", "result": "does not enhance sleep onset, depth, efficiency, or duration"}]}
{"smiles": "O=C(O[C@@H]1Cc2c(O)cc(O)cc2O[C@@H]1c1cc(O)c(O)c(O)c1)c1cc(O)c(O)c(O)c1", "note": "[EGCG, Epigallocatechin gallate]", "values": [{"measurement": "Jak3 expression", "setting": "Janus kinase 3 (Jak3)", "result": "inhibited Jak3 expression in a dose-dependent manner"}, {"measurement": "COX-2 expression (anti-histamine activity)", "setting": "COX-2 expression", "result": "inhibited COX-2 expression in a dose-dependent manner, although not as strongly as did the positive controls"}, {"measurement": "TNF-α activity/level", "setting": "TNF-α", "result": "inhibited the activity of each of TNF-α, IL-1β and IL-6 in a dose-dependent manner"}, {"measurement": "IL-1β activity/level", "setting": "IL-1β", "result": "inhibited the activity of each of TNF-α, IL-1β and IL-6 in a dose-dependent manner"}, {"measurement": "IL-6 activity/level", "setting": "IL-6", "result": "inhibited the activity of each of TNF-α, IL-1β and IL-6 in a dose-dependent manner"}, {"measurement": "Sleep after awakening in the middle of the night", "setting": "[1]", "result": "does not improve sleep after awakening in the middle of the night"}, {"measurement": "Sleep onset, depth, efficiency, duration", "setting": "[1]", "result": "does not enhance sleep onset, depth, efficiency, or duration"}]}
